Our source for the IC50 and EC50 values is patent US10246456B2, “IRAK4 inhibiting agents” (BIOGEN MA INC., priority 2014, dated 2019).

pEC50, pIC50: −log10 of the molar value.

One assay addresses IRAK4 (Homo sapiens (Human), UniProt Q9NWZ3). The experiment in a line: IRAK-4 AlphaScreen biochemical kinase assay. The conditions noted are these: 1 nM IRAK4, 1 mM ATP, 3.5 h at RT. A digest of the protocol: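 AlphaScreen read-out: streptavidin beads bind the biotinylated peptide and protein A beads bind the anti-phosphothreonine antibody, so energy transfer reports phosphorylation of the peptide. The kinase is human IRAK-4.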
(In Alpha technology, singlet oxygen from a donor bead excites a nearby acceptor bead.)

A further assay deals with IL-6 in A549 cells. The assay can be described thus: Cell-based IL-6 ELISA assay in IL-1beta stimulated A549 cells. The conditions noted are these: 2 ng/ml human IL-1beta overnight. A digest of the protocol: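 A549 cells (2.5×10^4/well, DMEM/10% FBS) pretreated 30 min at 37 C with compound, 10-point serial dilution from 10 uM, then stimulated overnight with 2 ng/ml human IL-1beta. Secreted IL-6 in supernatant quantified by human IL-6 ELISA.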
Background: ELISA stands for enzyme-linked immunosorbent assay.

Chain of IRAK4 (Q9NWZ3 whole entry, species assumed): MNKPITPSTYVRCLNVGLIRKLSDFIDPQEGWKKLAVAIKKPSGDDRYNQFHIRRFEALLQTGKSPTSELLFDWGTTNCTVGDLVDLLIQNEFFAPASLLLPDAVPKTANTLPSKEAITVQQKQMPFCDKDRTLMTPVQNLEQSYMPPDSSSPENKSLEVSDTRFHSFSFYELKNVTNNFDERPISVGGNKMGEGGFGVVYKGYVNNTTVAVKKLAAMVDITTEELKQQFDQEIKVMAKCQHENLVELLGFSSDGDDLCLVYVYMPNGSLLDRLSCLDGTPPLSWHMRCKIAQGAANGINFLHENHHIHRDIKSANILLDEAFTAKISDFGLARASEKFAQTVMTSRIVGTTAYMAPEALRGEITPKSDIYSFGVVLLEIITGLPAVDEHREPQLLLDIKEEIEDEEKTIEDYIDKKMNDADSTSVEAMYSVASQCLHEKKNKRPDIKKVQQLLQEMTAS

In the case of `CCC[C@@H](N)c1ccnc(-c2ccc3cnn(-c4cccc(CO)n4)c3c2)n1` [Example 414, (R)-(6-(6-(4-(1-aminobutyl)pyrimidin-2-yl)-1H-indazol-1-yl)pyridin-2-yl)methanol], at IRAK4, the pIC50 – broadly, the IC50 on a negative log10 scale, so that one unit is a factor of ten – was more than 7.00. The pEC50 (as a rule, the negative decadic logarithm of the EC50, by convention in mol/L) with IL-6 in A549 cells is not below 6.00.
Turning to `N[C@H](c1cccc(-c2ccc3cnn(-c4cccc(CO)n4)c3c2)n1)C1CCC1` [Example 422, (S)-(6-(6-(6-(amino(cyclobutyl)methyl)pyridin-2-yl)-1H-indazol-1-yl)pyridin-2-yl)methanol], the pIC50 on IRAK4 is more than 7.00. The compound further had a pEC50 in the assay with IL-6 in A549 cells not below 6.00.
In turn, `CCC[C@H](N)c1cccc(-c2cc(C3CCOCC3)c3cnn(-c4cccc(CO)n4)c3c2)n1` [Example 425, (S)-(6-(6-(6-(1-aminobutyl)pyridin-2-yl)-4-(tetrahydro-2H-pyran-4-yl)-1H-indazol-1-yl)pyridin-2-yl)methanol] showed a pIC50 on IRAK4 of more than 7.00. Further, the pEC50 in the assay with IL-6 in A549 cells was not below 6.00.
In the case of `N[C@@H](CCC(F)(F)F)c1cccc(-c2ccc3cnn(-c4cccc(CO)n4)c3c2)n1` [Example 427, (S)-(6-(6-(6-(1-amino-4,4,4-trifluorobutyl)pyridin-2-yl)-1H-indazol-1-yl)pyridin-2-yl)methanol], the pIC50 at IRAK4 was more than 7.00. The pEC50 in the assay with IL-6 in A549 cells was not below 6.00.
For `C=C(C)C[C@H](N)c1cccc(-c2ccc3cnn(-c4cccc(CO)n4)c3c2)n1` [Example 436, (S)-(6-(6-(6-(1-amino-3-methylbut-3-en-1-yl)pyridin-2-yl)-1H-indazol-1-yl)pyridin-2-yl)methanol] the same measures were more than 7.00 and not below 6.00.
The compound `CC(F)(F)C[C@H](N)c1cccc(-c2ccc3cnn(-c4cccc(CO)n4)c3c2)n1` [Example 437, (S)-(6-(6-(6-(1-amino-3,3-difluorobutyl)pyridin-2-yl)-1H-indazol-1-yl)pyridin-2-yl)methanol] had a pIC50 at IRAK4 of more than 7.00. Moreover, the negative logarithm of the EC50 (pEC50) with IL-6 in A549 cells is not below 6.00.
`CCOc1cc(-c2cccc([C@@H](N)CC(C)(F)F)n2)cc2c1cnn2-c1cccc(CO)n1` [Example 438, (S)-(6-(6-(6-(1-amino-3,3-difluorobutyl)pyridin-2-yl)-4-ethoxy-1H-indazol-1-yl)pyridin-2-yl)methanol] gave a pIC50 at IRAK4 of more than 7.00. The pEC50 in the assay on IL-6 in A549 cells is not below 6.00.
In turn, `CCOc1cc(-c2cccc([C@H](N)c3ccccc3)n2)cc2c1cnn2-c1cccc(CO)n1` [Example 439, (R)-(6-(6-(6-(amino(phenyl)methyl)pyridin-2-yl)-4-ethoxy-1H-indazol-1-yl)pyridin-2-yl)methanol] showed a pIC50 on IRAK4 of more than 7.00. Further, the negative logarithm of the EC50 (pEC50) in the assay on IL-6 in A549 cells was not below 6.00.
For `CCOc1cc(-c2cccc([C@@H](N)[C@@H](F)CC)n2)cc2c1cnn2-c1cccc(CO)n1` [Example 442, (6-(6-(6-((1R,2S)-1-amino-2-fluorobutyl)pyridin-2-yl)-4-ethoxy-1H-indazol-1-yl)pyridin-2-yl)methanol] the same measures were more than 7.00 and not below 6.00.
For `CCOc1cc(-c2cccc([C@@H](N)[C@H](F)CC)n2)cc2c1cnn2-c1cccc(CO)n1` [Example 443, (6-(6-(6-((1R,2R)-1-amino-2-fluorobutyl)pyridin-2-yl)-4-ethoxy-1H-indazol-1-yl)pyridin-2-yl)methanol], the pIC50 against IRAK4 was more than 7.00. For the same compound, the pEC50 in the assay with IL-6 in A549 cells was not below 6.00.
On to `CCOc1cc(-c2cccc([C@@H](N)[C@H](CC)OC)n2)cc2c1cnn2-c1cccc(CO)n1` [Example 444, (6-(6-(6-((1R,2S)-1-amino-2-methoxybutyl)pyridin-2-yl)-4-ethoxy-1H-indazol-1-yl)pyridin-2-yl)methanol], for which the pIC50 at IRAK4 was more than 7.00. This compound showed a pEC50 in the assay on IL-6 in A549 cells of 5.00 to 6.00.
`CCOc1cc(-c2cccc([C@@H](N)[C@@H](CC)OC)n2)cc2c1cnn2-c1cccc(CO)n1` [Example 445, (6-(6-(6-((1R,2R)-1-amino-2-methoxybutyl)pyridin-2-yl)-4-ethoxy-1H-indazol-1-yl)pyridin-2-yl)methanol] gave a pIC50 against IRAK4 of more than 7.00. The pEC50 with IL-6 in A549 cells is not below 6.00.
For the compound `NC(c1cccc(-c2ccc3cnn(-c4cccc(CO)n4)c3c2)n1)C1COC1` (stereo not drawn) [Example 446, (6-(6-(6-(amino(oxetan-3-yl)methyl)pyridin-2-yl)-1H-indazol-1-yl)pyridin-2-yl)methanol], the pIC50 at IRAK4 is more than 7.00. Moreover, in the assay on IL-6 in A549 cells, the negative-log EC50 (pEC50) is not below 6.00.
For `CCOc1cc(-c2cccc(C(N)C3COC3)n2)cc2c1cnn2-c1cccc(CO)n1` (stereo not drawn) [Example 447, (6-(6-(6-(amino(oxetan-3-yl)methyl)pyridin-2-yl)-4-ethoxy-1H-indazol-1-yl)pyridin-2-yl)methanol], the pIC50 on IRAK4 was more than 7.00. The compound also had a pEC50 with IL-6 in A549 cells not below 6.00.
Regarding `CC1(CC(N)c2cccc(-c3ccc4cnn(-c5cccc(CO)n5)c4c3)n2)COC1` (stereo not drawn) [Example 448, (6-(6-(6-(1-amino-2-(3-methyloxetan-3-yl)ethyl)pyridin-2-yl)-1H-indazol-1-yl)pyridin-2-yl)methanol], the pIC50 at IRAK4 was more than 7.00. The negative-log EC50 (pEC50) with IL-6 in A549 cells is 5.00 to 6.00.
`CCC[C@H](N)c1cccc(-c2ccc3cnn(-c4cccc(C=O)n4)c3c2)n1` [Example 450, (S)-6-(6-(6-(1-aminobutyl)pyridin-2-yl)-1H-indazol-1-yl)picolinaldehyde] had a negative logarithm of the IC50 (pIC50) at IRAK4 of more than 7.00. The compound also gave a negative logarithm of the EC50 (pEC50) in the assay with IL-6 in A549 cells of 5.00 to 6.00.
For `CCC[C@H](N)c1cccc(-c2ccc3cnn(-c4cccc([C@@H](O)C(F)(F)F)n4)c3c2)n1` [Example 451, (R)-1-(6-(6-(6-((S)-1-aminobutyl)pyridin-2-yl)-1H-indazol-1-yl)pyridin-2-yl)-2,2,2-trifluoroethanol] the same measures were more than 7.00 and not below 6.00.
At IRAK4, `CCC[C@H](N)c1cccc(-c2ccc3cnn(-c4cccc([C@H](O)C(F)(F)F)n4)c3c2)n1` [Example 452, (S)-1-(6-(6-(6-((S)-1-aminobutyl)pyridin-2-yl)-1H-indazol-1-yl)pyridin-2-yl)-2,2,2-trifluoroethanol] showed a negative logarithm of the IC50 (pIC50) of more than 7.00. In addition, the pEC50 in the assay on IL-6 in A549 cells is 5.00 to 6.00.
Regarding `CC[C@@H](F)[C@H](N)c1cccc(-c2cc(OCCOC)c3cnn(-c4cccc(CO)n4)c3c2)n1` [Example 453, (6-(6-(6-((1R,2R)-1-amino-2-fluorobutyl)pyridin-2-yl)-4-(2-methoxyethoxy)-1H-indazol-1-yl)pyridin-2-yl)methanol], the pIC50 against IRAK4 was more than 7.00. Also, the pEC50 in the assay with IL-6 in A549 cells was not below 6.00.
Compound `CC[C@H](F)[C@H](N)c1cccc(-c2cc(OCCOC)c3cnn(-c4cccc(CO)n4)c3c2)n1` [Example 454, (6-(6-(6-((1R,2S)-1-amino-2-fluorobutyl)pyridin-2-yl)-4-(2-methoxyethoxy)-1H-indazol-1-yl)pyridin-2-yl)methanol] showed a pIC50 on IRAK4 of more than 7.00. The pEC50 in the assay on IL-6 in A549 cells was not below 6.00.
For `CCC[C@H](N)c1cccc(-c2cc(OCCCOC)c3cnn(-c4cccc(CO)n4)c3c2)n1` [Example 456, (S)-(6-(6-(6-(1-aminobutyl)pyridin-2-yl)-4-(3-methoxypropoxy)-1H-indazol-1-yl)pyridin-2-yl)methanol], in that order: more than 7.00 and not below 6.00.
At IRAK4, `CC[C@H](N)c1cccc(-c2cc(OCCCOC)c3cnn(-c4cccc(CO)n4)c3c2)n1` [Example 457, (S)-(6-(6-(6-(1-aminopropyl)pyridin-2-yl)-4-(3-methoxypropoxy)-1H-indazol-1-yl)pyridin-2-yl)methanol] gave a negative-log IC50 (pIC50) of more than 7.00. In addition, the pEC50 with IL-6 in A549 cells was not below 6.00.
`COCCCOc1cc(-c2cccc([C@H](C)N)n2)cc2c1cnn2-c1cccc(CO)n1` [Example 458, (S)-(6-(6-(6-(1-aminoethyl)pyridin-2-yl)-4-(3-methoxypropoxy)-1H-indazol-1-yl)pyridin-2-yl)methanol] showed a negative-log IC50 (pIC50) against IRAK4 of more than 7.00. This compound also had a negative logarithm of the EC50 (pEC50) in the assay with IL-6 in A549 cells not below 6.00.
For `CCC[C@H](N)c1cccc(-c2cc(OC)c3cnn(-c4cccc(CO)n4)c3c2)n1` [Example 463, (S)-(6-(6-(6-(1-aminobutyl)pyridin-2-yl)-4-methoxy-1H-indazol-1-yl)pyridin-2-yl)methanol], in that order: more than 7.00 and not below 6.00.
`CCC[C@H](N)c1cccc(-c2cc(OCC)c3cnn(-c4cccc(CO)n4)c3c2)n1` [Example 464, (S)-(6-(6-(6-(1-aminobutyl)pyridin-2-yl)-4-ethoxy-1H-indazol-1-yl)pyridin-2-yl)methanol] gave a pIC50 on IRAK4 of more than 7.00. This compound gave a pEC50 with IL-6 in A549 cells not below 6.00.
As for `CC[C@H](N)c1cccc(-c2cc(F)c3cnn(-c4cccc(CO)n4)c3c2)n1` [Example 473, (S)-(6-(6-(6-(1-aminopropyl)pyridin-2-yl)-4-fluoro-1H-indazol-1-yl)pyridin-2-yl)methanol], the pIC50 on IRAK4 was more than 7.00. In the assay with IL-6 in A549 cells, this compound had a pEC50 not below 6.00.
The compound `CCC[C@H](N)c1cccc(-c2cc(F)c3cnn(-c4cccc(CO)n4)c3c2)n1` [Example 474, (6-{6-[6-((S)-1-Amino-butyl)-pyridin-2-yl]-4-fluoro-indazol-1-yl}-pyridin-2-yl)-methanol] gave a pIC50 against IRAK4 of more than 7.00. The pEC50 in the assay with IL-6 in A549 cells is not below 6.00.
For `CCC[C@H](N)c1cccc(-c2cc(OCCOC)c3cnn(-c4cccc(CO)n4)c3c2)n1` [Example 476, (S)-(6-(6-(6-(1-aminobutyl)pyridin-2-yl)-4-(2-methoxyethoxy)-1H-indazol-1-yl)pyridin-2-yl)methanol], in that order: more than 7.00 and not below 6.00.
As for `CCC[C@H](N)c1cccc(-c2cc(OC(C)C)c3cnn(-c4cccc(CO)n4)c3c2)n1` [Example 483, (6-{6-[6-((S)-1-Amino-butyl)-pyridin-2-yl]-4-isopropoxy-indazol-1-yl}-pyridin-2-yl)-methanol], the pIC50 on IRAK4 is more than 7.00. This compound also gave a pEC50 in the assay with IL-6 in A549 cells not below 6.00.
For `CC[C@H](N)c1cccc(-c2cc(NC)c3cnn(-c4cccc(CO)n4)c3c2)n1` [Example 485, (S)-(6-(6-(6-(1-aminopropyl)pyridin-2-yl)-4-(methylamino)-1H-indazol-1-yl)pyridin-2-yl)methanol], the pIC50 against IRAK4 is more than 7.00. The compound also showed a pEC50 in the assay with IL-6 in A549 cells not below 6.00.
